From patent US8669257B2, “Phenazine derivatives and uses thereof as potassium channel modulators” (The Johns Hopkins University, priority 2007, dated 2014)
“Also recorded” adds a separate entry of the source. Read-outs that look alike come from different tables or passages of the source.

Legend:
[1] = target: T1, calcineurin-NFATc2 interaction (Homo sapiens, UniProt P16298+Q13469, H160N); assay: Mammalian two-hybrid assay of calcineurin and NFATc2 in Jurkat T-cells; assay type: cell-based
T1 construct: calcineurinA (1-400, H160N) and NFATc2 (1-415) in Jurkat T-cells; expressed in transfected cells; host or cells: Jurkat T-cells

[2] = system: human mixed lymphocyte reaction; assay: Human mixed lymphocyte reaction (MLR), [3H]-thymidine incorporation; assay type: cell-based; conditions: FIG. 1B, n=6
Description: The human MLR was established by coculturing normal human PBMN responder lymphocytes (0.5×10^6) with an equal number of miomycin C-treated stimulator cells in RPMI1640 complete medium. The cells were incubated with varying doses of clofazimine at 37° C. in a humidified atmosphere of 5% CO2 for 4 days. Then 1 μCi of [^3H]-thymidine was added into culture and incubation was continued for 6 h. The cells were harvested and [^3H]-thymidine incorporated into cells was measured in a liquid scintillation counter.

murine skin transplant = assay: Mouse skin transplantation with adoptive transfer of murine cells (parallel experiment); assay type: in vivo; conditions: murine skin and total murine T-cells
Source text: FIG. 5. […] (A) Representative skin grafts at different days post-transplantation. Human foreskin was transplanted onto Pfp/Rag2−/− mice. 1.0×10^8 human peripheral blood lymphocytes (PBL) were adoptively transferred into each animal at Day 7 post-transplantation. Administration of clofazimine or carrier control (olive oil) was also initiated at Day 7. * Days after skin transplantation/cell transfer. (B) Effect of clofazimine on the mean survival time of transplanted human (n=5) and mouse (n=4) skin grafts. The mouse skin transplantation was performed using Balb/c mice as skin donors, B6 Rag1−/− mice as recipients and PBL from B6 for adoptive transfer.

[3] = system: IL-2 proximal promoter driven-luciferase; assay: IL-2 luciferase reporter assay in Jurkat T-cells (PMA/ionomycin); assay type: cell-based, human; conditions: for IC50: n=6
[4] = system: IL-2 production in Jurkat T-cells; assay: IL-2 secreted from stimulated Jurkat T-cells (ELISA); assay type: cell-based; conditions: Homo sapiens; PMA/thapsigargin-stimulated Jurkat T-cells, FIG. 1B, n=6
Description: Jurkat E6.1 T-cells (1×10^5 in 180 μl) were seeded into 96-well plates. Cells in each well were treated with different concentrations of clofazimine for 1 h before 1 μM ionomycin and 40 nM PMA were added. The incubation was continued for 2 days. The plates were centrifuged at 1,200×g for 5 min, and the supernatant from each well was collected followed by ELISA detection of IL-2. The primary antibody, biotinylated secondary antibody and HRP conjugated avidin were purchase from BD/Pharmingen.

mouse Kv3.1 = target: T2, mouse Kv3.1 (Mus musculus, UniProt P15388); assay: Patch-clamp of heterologous mouse Kv3.1 expressed in L929 cells; assay type: cell-based
T2 construct: expressed in transfected cells; host or cells: L929 cells
Description: (§1) Patch pipettes, pulled from glass capillaries (inner diameter 1.5 mm, Kimble products) with a horizontal puller (Sutter instruments, Modell P-97), were fire-polished, and had resistances between 2 and 4 MOhm. Patch-clamp experiments were performed in the tight-seal whole-cell configuration at room temperature (22-24° C.). High-resolution current recordings were acquired by a computer-based patch-clamp amplifier system (EPC-9, HEKA). Immediately following establishment of the whole-cell configuration, every two seconds voltage ramps of 50 ms duration spanning the voltage range of −100 to +100 mV for Jurkat T-cells and −150 to +150 mV for HEK293 were delivered from a holding potential (Vh) of −70 mV for Jurkats and 0 mV for HEK293 cells over a period of 300-600 s. […] Capacitive currents and series resistance were determined and corrected before each voltage ramp using the automatic capacitance compensation of the EPC-9. […] Kv1.3 currents in Jurkat T-cells were measured at +80 mV. Heterologously expressed Kv1.1, Kv1.2, Kv1.3, Kv1.5 and Kv3.1 were assessed at +80 mV except in Figure S7, where currents were additionally measured at the more physiological voltage of 0 mV. CRAC currents in HEK293 cells were assessed at −80 mV. […]

mouse Kv1.1 = target: T3, mouse Kv1.1 (Mus musculus, UniProt P16388); assay: Patch-clamp of mouse Kv1.1 stably expressed in L929 cells; assay type: cell-based
T3 construct: expressed in transfected cells; host or cells: L929 cells
Description: as §1

[5] = system: calcineurin-NFATc2 interaction; assay: GST-NFATc2 pull-down of calcineurin; assay type: binding
mouse Kv1.3 = target: T4, mouse Kv1.3 (Mus musculus, UniProt P16390); assay: Patch-clamp of heterologous mouse Kv1.3 expressed in L929 cells; assay type: cell-based
T4 construct: expressed in transfected cells; host or cells: L929 cells
Description: as §1

[6] = system: EGFP-NFATc3 nuclear translocation; assay: NFAT nuclear translocation in Jurkat T-cells stimulated by ionomycin; assay type: cell-based, human; conditions: 1 μM ionomycin
[7] = system: NF-κB luciferase reporter; assay: NF-κB luciferase reporter assay in Jurkat T-cells; assay type: cell-based, human; conditions: FIG. 1C
Kv1.3 = target: T5, Kv1.3 (Homo sapiens, UniProt P22001); assay: Patch-clamp of Kv1.3 currents in Jurkat T-cells; assay type: cell-based
T5 construct: endogenous in cells; host or cells: Jurkat T-cells
Description: as §1

TRPM4 channel = TRPM4 channel (Homo sapiens, UniProt Q8TD43); assay: Activity of TRPM4 channel (data not shown); assay type: cell-based; conditions: up to 10 μM
Chain of TRPM4 channel (Q8TD43 whole entry): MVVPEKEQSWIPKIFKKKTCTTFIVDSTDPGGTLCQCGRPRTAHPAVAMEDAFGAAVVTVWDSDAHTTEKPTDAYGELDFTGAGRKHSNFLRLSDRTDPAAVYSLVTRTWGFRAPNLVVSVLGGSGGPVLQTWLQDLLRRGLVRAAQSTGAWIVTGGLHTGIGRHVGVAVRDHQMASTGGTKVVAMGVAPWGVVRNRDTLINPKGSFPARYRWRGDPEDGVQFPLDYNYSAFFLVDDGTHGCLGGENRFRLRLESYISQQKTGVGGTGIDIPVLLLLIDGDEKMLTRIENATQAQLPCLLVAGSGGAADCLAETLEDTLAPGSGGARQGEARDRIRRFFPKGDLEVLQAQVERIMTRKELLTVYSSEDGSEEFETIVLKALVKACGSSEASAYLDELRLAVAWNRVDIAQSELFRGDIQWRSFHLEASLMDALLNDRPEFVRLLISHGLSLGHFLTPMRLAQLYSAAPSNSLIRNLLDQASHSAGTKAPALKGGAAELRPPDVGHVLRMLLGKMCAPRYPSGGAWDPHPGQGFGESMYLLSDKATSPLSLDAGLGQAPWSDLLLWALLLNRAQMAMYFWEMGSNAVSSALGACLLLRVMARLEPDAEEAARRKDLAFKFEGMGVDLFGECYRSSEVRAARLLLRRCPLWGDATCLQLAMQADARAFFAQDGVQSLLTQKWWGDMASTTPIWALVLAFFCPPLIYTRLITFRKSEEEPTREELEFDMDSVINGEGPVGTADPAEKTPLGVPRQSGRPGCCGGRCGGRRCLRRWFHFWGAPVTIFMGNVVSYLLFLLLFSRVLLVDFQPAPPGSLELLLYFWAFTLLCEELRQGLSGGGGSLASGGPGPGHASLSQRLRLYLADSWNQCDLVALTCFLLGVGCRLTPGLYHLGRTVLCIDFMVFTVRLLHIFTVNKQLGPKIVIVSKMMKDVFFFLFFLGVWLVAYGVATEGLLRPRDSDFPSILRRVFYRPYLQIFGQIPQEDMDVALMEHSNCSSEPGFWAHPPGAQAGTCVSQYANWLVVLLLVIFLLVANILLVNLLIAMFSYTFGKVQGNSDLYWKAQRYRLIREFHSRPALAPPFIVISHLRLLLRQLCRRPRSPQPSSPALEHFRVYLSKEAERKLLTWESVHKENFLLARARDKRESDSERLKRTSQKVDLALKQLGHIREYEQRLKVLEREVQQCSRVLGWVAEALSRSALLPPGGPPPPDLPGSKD

T4 sequence (P16390 whole entry): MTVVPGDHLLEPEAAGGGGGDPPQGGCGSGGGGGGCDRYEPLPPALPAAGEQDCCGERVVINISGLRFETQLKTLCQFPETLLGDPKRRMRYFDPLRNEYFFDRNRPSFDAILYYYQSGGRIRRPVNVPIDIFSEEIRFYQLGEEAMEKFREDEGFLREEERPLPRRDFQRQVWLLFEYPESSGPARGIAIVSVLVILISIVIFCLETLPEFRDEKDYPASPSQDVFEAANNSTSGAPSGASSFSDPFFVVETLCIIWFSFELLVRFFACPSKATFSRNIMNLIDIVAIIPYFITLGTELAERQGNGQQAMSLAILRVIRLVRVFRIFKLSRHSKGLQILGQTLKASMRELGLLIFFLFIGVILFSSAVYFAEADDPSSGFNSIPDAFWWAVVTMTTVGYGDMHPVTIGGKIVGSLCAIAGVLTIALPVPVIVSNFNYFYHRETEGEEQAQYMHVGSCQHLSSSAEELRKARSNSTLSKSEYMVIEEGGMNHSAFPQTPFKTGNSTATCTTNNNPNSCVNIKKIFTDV
T1 sequence (Q13469 1-415): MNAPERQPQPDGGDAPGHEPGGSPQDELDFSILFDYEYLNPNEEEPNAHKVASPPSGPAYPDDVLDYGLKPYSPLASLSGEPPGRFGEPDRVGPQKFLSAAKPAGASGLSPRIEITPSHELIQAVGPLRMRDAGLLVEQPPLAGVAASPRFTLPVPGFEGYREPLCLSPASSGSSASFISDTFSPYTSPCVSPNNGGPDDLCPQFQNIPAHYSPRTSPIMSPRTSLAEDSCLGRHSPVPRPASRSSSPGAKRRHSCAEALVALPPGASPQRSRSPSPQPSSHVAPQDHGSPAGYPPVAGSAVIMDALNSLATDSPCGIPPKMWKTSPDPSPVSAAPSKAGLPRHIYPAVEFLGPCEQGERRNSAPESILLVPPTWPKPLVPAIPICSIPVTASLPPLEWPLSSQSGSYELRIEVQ
T3 sequence (P16388 whole entry): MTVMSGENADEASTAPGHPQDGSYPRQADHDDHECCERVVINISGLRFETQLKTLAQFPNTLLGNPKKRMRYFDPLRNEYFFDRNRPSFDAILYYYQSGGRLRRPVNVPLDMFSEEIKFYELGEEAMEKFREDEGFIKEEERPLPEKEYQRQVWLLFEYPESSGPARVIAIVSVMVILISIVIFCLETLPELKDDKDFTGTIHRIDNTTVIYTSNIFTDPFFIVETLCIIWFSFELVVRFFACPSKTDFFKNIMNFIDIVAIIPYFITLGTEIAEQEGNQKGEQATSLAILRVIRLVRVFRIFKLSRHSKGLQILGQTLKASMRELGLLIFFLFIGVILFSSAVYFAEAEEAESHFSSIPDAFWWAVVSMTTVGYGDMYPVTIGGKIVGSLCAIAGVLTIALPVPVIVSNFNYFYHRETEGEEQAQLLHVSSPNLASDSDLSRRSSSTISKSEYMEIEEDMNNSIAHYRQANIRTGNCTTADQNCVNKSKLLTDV
T5 sequence (P22001 whole entry): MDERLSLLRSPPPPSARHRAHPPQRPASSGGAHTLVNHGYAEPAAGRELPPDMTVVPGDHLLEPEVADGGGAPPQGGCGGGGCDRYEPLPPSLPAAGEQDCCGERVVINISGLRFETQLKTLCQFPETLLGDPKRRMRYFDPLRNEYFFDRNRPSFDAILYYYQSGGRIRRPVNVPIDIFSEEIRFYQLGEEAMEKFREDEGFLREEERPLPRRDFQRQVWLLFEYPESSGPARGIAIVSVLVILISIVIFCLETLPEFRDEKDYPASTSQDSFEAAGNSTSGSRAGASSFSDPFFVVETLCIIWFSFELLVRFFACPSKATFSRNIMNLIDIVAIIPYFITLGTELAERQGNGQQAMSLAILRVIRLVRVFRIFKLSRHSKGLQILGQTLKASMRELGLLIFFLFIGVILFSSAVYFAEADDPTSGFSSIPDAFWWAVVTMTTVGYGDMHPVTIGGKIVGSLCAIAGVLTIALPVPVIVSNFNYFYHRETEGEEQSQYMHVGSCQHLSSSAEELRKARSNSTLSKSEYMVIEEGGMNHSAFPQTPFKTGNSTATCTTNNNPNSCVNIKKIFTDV
T2 sequence (P15388 whole entry): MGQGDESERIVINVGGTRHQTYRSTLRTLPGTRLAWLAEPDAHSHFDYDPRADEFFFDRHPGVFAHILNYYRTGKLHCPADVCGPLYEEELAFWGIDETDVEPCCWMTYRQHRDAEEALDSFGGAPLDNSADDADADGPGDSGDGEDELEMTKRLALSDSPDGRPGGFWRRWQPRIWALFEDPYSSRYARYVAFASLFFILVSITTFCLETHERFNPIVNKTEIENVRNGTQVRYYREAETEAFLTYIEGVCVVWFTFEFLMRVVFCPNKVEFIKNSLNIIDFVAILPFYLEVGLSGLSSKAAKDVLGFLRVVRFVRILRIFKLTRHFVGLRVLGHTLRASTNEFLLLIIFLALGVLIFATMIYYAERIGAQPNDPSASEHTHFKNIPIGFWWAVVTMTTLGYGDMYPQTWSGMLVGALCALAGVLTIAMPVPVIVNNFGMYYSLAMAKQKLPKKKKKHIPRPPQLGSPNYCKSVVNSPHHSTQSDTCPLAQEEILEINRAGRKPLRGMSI

In the case of CC(C)/N=c1\cc2n(-c3ccc(Cl)cc3)c3ccccc3nc-2cc1Nc1ccc(Cl)cc1 [clofazimine, Clofazimine], the “effect on calcium-dependent NFAT-calcineurin interaction” value [1] is reported as “inhibited the calcium-dependent NFAT-calcineurin interaction in a dose-dependent manner”, the “effect on calcium-dependent NFAT-calcineurin interaction” value ([1]; listed as Clofazimine) is reported as “inhibits the calcium-dependent enhancement” and the IC50 [2] is reported as 0.9 ± 0.17 µM. The “effect on survival of murine skin transplant” value (murine skin transplant) was “no effect on the survival”, the IC50 ([3]; Homo sapiens, Jurkat, Kv1.3 overexpression low to high, 1st curve, read-out: IC50, IL-2 luciferase reporter, Kv1.3 overexpression) was 0.0416 ± 0.0084 µM and the IC50 ([3]; Homo sapiens, Jurkat, Kv1.3 overexpression low to high, 2nd curve, read-out: IC50, IL-2 luciferase reporter, Kv1.3 overexpression) was 0.041 ± 0.0145 µM. It also gave an IC50 ([3]; Homo sapiens, Jurkat, Kv1.3 overexpression low to high, 3rd curve, read-out: IC50, IL-2 luciferase reporter, Kv1.3 overexpression) of 0.386 ± 0.214 µM, an IC50 ([3]; Homo sapiens, Jurkat, Kv1.3 overexpression low to high, 4th curve, read-out: IC50, IL-2 luciferase reporter, Kv1.3 overexpression) of 1.37 ± 0.52 µM and an IC50 ([3]; Homo sapiens, Jurkat, Kv1.3 overexpression low to high, 5th (highest) curve, read-out: IC50, IL-2 luciferase reporter, Kv1.3 overexpression) of 1.46 ± 0.63 µM. For the same molecule, the IC50 ([3]; Homo sapiens, Jurkat, PMA/ionomycin-stimulated Jurkat T-cells, FIG. 1A, read-out: IC50, IL-2 luciferase reporter) was 0.0218 ± 0.0044 µM, the IC50 ([3]; Homo sapiens, Jurkat, control EGFP-siRNA lentiviral transduced Jurkat T-cells, read-out: IC50, IL-2 luciferase reporter) was 0.0499 ± 0.013 µM and the IC50 ([3]; Homo sapiens, Jurkat, shKv1.3-4 (Kv1.3 knockdown) transduced Jurkat T-cells, read-out: IC50, IL-2 luciferase reporter) was 0.0105 ± 0.0024 µM. The IC50 ([3]; Homo sapiens, Jurkat, PMA/ionomycin, FIG. 1C, read-out: IC50, IL-2 luciferase reporter) was 0.056 ± 0.0148 µM, the IC50 ([3]; PMA/ionomycin-stimulated Jurkat T-cells, FIG. 1A, read-out: IC50, IL-2 luciferase reporter) was 0.022 µM and the “increase in IC50 value upon Kv1.3 overexpression” value ([3]; highest Kv1.3 expression plasmid (2 μg)) was 35 fold. The “decrease in IC50 values upon Kv1.3 knockdown” value ([3]; shKv1.3-4 vs shRNA against EGFP) was roughly 5 fold, the IC50 [4] was 1.1 ± 0.26 µM and the “block of current, mouse Kv3.1” value (mouse Kv3.1; 10 μM) was “less than 50%”. The IC50 (mouse Kv3.1; inferred from block at 10 μM) was greater than 10 µM, the “block of current, mouse Kv1.1” value (mouse Kv1.1; 10 μM) was “less than 50%” and the IC50 (mouse Kv1.1; inferred from block at 10 μM) was greater than 10 µM. The “effect on binding of GST-NFATc2 to calcineurin” value [5] was “Nor did it affect the binding; also recorded: does not interfere with calcineurin-NFATc2 interaction”, the “Hill coefficient, mouse Kv1.3” value (mouse Kv1.3) was 0.5 and the IC50 (mouse Kv1.3; +80 mV) was 0.47 µM. The “effect on NFAT nuclear translocation” value [6] was “blocked the ionomycin-induced nuclear translocation”, the “effect on NFAT nuclear translocation” value ([6]; listed as Clofazimine) was “inhibits EGFP-NFATc3 nuclear translocation” and the “NF-κB luciferase reporter less sensitive than IL-2 promoter-driven reporter” value [7] was “about 40 fold”. The IC50 ([7]; Homo sapiens, Jurkat, PMA/ionomycin, n=6) was 2.43 ± 1.25 µM, the “Hill coefficient, Kv1.3 current” value (Kv1.3) was 0.75 and the IC50 (Kv1.3; current at +80 mV, inhibition at 120 s, read-out: IC50, Kv1.3 potassium current) was 0.3 µM. The “effect on TRPM4 channel activity” value (TRPM4 channel) was “remained unaffected”.
